Laboratory results as given in patent US12138254B2, “Chronic nightly dosing of lasmiditan for migraine prevention” (Eli Lilly and Company, priority 2018, dated 2024).
Where two headings read alike, the source gives them in different places.

Test: Unbound plasma and brain levels of lasmiditan in rats from dural PPE studies
Assay type: in vivo, Sprague-Dawley rats
Settings: rat; for concentration at 1 h / concentration at 24 h: male, Sprague-Dawley; for concentration at 1 h: 1 hr post-dose; for concentration at 24 h: 24 hrs post-dose
Procedure: Lasmiditan-hemisuccinate is dissolved in sterile water. All doses of lasmiditan are reported as free base equivalent doses, accounting for the weight of the salt. Envigo Sprague-Dawley, Sprague-Dawley male rats (250-350 grams, n=4/group) are fasted overnight prior to dosing. The animals are orally gavaged (2 mL/kg dose volume) with test compound or vehicle one hour prior to stimulation time and returned to their cages with only water available. Approximately 50 minutes post-dosing, the rats are anesthetized with Nembutal (65 mg/kg, ip.) and implanted with stainless steel stimulating electrodes (Rhodes Medical Systems, Inc.) to a depth of 9.2 mm. from the dura. The femoral vein is exposed and fluorescein isothiocyanate-labeled bovine serum albumin (FITC-BSA) (20 mg/kg, iv.), is injected into the femoral vein 2 minutes prior to stimulation. The FITC-BSA functions as a marker for protein extravasation. The left trigeminal ganglion is stimulated for 5 minutes at a current intensity of 1.0 mA (5 Hz, 5 msec pulse duration) with a Model S48 Grass Instrument Stimulator with PSIU6 photoelectric isolation unit (Grass-Telefactor). Five minutes following stimulation, a blood sample is collected by cardiac puncture and the rats are sacrificed by exsanguination with 40 ml of saline. One milliliter of blood is collected and placed in a 1.5 ml EDTA coated tube (Fisher Cat. #540734) on ice. Plasma is separated via centrifugation at 10,000 rpm (941 g) for thirty minutes at 4° C. The top of the skull is removed to collect the brain and dural membranes. The brain and plasma samples are frozen at −80° C. until thawed for compound quantification. The membrane samples are removed from both hemispheres, rinsed with water, and spread flat on microscope slides. The slides are dried for 15 minutes on a slide warmer, then the tissues are cover-slipped with a 70% glycerol/water solution. A fluorescence microscope (Zeiss) equipped with a grating monochromator and a spectrophotometer is used to quantify the amount of FITC-BSA dye in each dural sample. The extravasation induced by electrical stimulation of the trigeminal ganglion is an ipsilateral effect (i.e. occurs only on the side of the dura in which the trigeminal ganglion was stimulated). This allows the other (unstimulated) half of the dura to be used as the control. The ratio of extravasation in the dura from the stimulated side versus the unstimulated side is calculated and reported as the extravasation ratio for each animal. The mean extravasation ratio and standard error of the mean (SEM) are calculated for each treatment group. Controls yield a ratio of approximately 1.8. In contrast, a compound which effectively prevents the extravasation in the dura from the stimulated side would have a ratio of approximately 1. The resulting data are analyzed with a one-way ANOVA followed by Dunnett's post hoc to determine statistical significance (p<0.05). Levels of compound in the plasma and brain samples for each animal are analyzed according to methods known to the skilled artisan. Evaluation of Compound Potency 24 or 48 Hours Following Oral Administration Envigo Sprague-Dawley, Sprague-Dawley male rats (250-350 grams, n=4/group) are fasted overnight prior to dosing for the duration p.o. study. The animals are orally gavaged with test compound or vehicle and returned to their cages with only water available; with food returned 1 hour later. Either 24 or 48 post-dose, the animals are anesthetized with Nembutal (65 mg/kg, ip.) and placed in a stereotaxic frame (David Kopf Instruments). The remainder of the protocol is identical to the method immediately above for Evaluation of Compound Potency 1 Hour Following Oral Administration. […] However, the unbound plasma and brain concentrations measured 24 hours following the administration of the 10 mg/kg dose, are not different from the exposures associated with the non-efficacious 0.1 mg/kg dose at one hour. […]

[1] = brain, 10 mg/kg po, read-out: Unbound Brain Cone (mean ± SD; n = 4)
[2] = plasma, 10 mg/kg po, read-out: Unbound Plasma Cone (mean ± SD; n = 4)
[3] = 10 mg/kg po, 48 hrs post-dose, BQL = below quantitation level

CN1CCC(C(=O)c2cccc(NC(=O)c3c(F)cc(F)cc3F)n2)CC1 [Lasmiditan, 2,4,6-trifluoro-N-[6-(1-methyl-piperidin-4-ylcarbonyl)-pyridin-2-yl]-benzamide]
concentration at 1 h (brain, 0.1 mg/kg po, read-out: Unbound Brain Cone (mean ± SD; n = 4)): 2 ± 0.1 nM | concentration at 1 h (brain, 1 mg/kg po, read-out: Unbound Brain Cone (mean ± SD; n = 4)): 16.6 ± 3.6 nM | concentration at 1 h [1]: 242 ± 95 nM | concentration at 24 h [1]: 2.1 ± 0.9 nM | concentration at 1 h (plasma, 0.1 mg/kg po, read-out: Unbound Plasma Cone (mean ± SD; n = 4)): 6 ± 1.9 nM | concentration at 1 h (plasma, 1 mg/kg po, read-out: Unbound Plasma Cone (mean ± SD; n = 4)): 67 ± 19.8 nM | concentration at 1 h [2]: 767 ± 254 nM | concentration at 24 h [2]: 6.2 ± 2.5 nM | Unbound Brain Cone (mean ± SD; n = 4) [3]: BQL | Unbound Plasma Cone (mean ± SD; n = 4) [3]: BQL
